Legend:
Assay in all cases: relative viability (nuclei count vs DMSO), 5 days (fraction); higher = more cells survive
ABC-1 = tested on: ABC-1
Procedure, shortened: (§1)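 Five library-drug doses in √10 steps were combined with a fixed anchor-drug dose, or a single drug was given alone, by pin tool to lung cancer cell lines in 1536-well plates the day after seeding. Nuclei were stained and counted after 5 days. Relative viability is the nuclei count in treated wells over that in vehicle wells, taken as the median of duplicate plates.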

CAL-12T = tested on: CAL-12T
Procedure, shortened: as §1

COR-L 105 = tested on: COR-L 105
Procedure, shortened: as §1

ChaGo-K-1 = tested on: ChaGo-K-1
Procedure, shortened: as §1

EKVX = tested on: EKVX
Procedure, shortened: as §1

EPLC-272H = tested on: EPLC-272H
Procedure, shortened: as §1

H3255 = tested on: H3255
Procedure, shortened: as §1

HCC-366 = tested on: HCC-366
Procedure, shortened: as §1

HCC-827 = tested on: HCC-827
Procedure, shortened: as §1

NCI-H1355 = tested on: NCI-H1355
Procedure, shortened: as §1

NCI-H1792 = tested on: NCI-H1792
Procedure, shortened: as §1

NCI-H1975 = tested on: NCI-H1975
Procedure, shortened: as §1

NCI-H1993 = tested on: NCI-H1993
Procedure, shortened: as §1

NCI-H2009 = tested on: NCI-H2009
Procedure, shortened: as §1

NCI-H2085 = tested on: NCI-H2085
Procedure, shortened: as §1

NCI-H2087 = tested on: NCI-H2087
Procedure, shortened: as §1

NCI-H2228 = tested on: NCI-H2228
Procedure, shortened: as §1

NCI-H322M = tested on: NCI-H322M
Procedure, shortened: as §1

NCI-H441 = tested on: NCI-H441
Procedure, shortened: as §1

NCI-H460 = tested on: NCI-H460
Procedure, shortened: as §1

SK-MES-1 = tested on: SK-MES-1
Procedure, shortened: as §1

CCNC(=O)c1noc(-c2cc(C(C)C)c(O)cc2O)c1-c1ccc(CN2CCOCC2)cc1 [Luminespib] + C[C@@H](Oc1cc(-c2cnn(C3CCNCC3)c2)cnc1N)c1c(Cl)ccc(F)c1Cl [Crizotinib] (partner 1 µM)
relative viability (ABC-1; first compound 0.002 µM): 1.55
relative viability (ABC-1; first compound 0.006325 µM): 0.877
relative viability (ABC-1; first compound 0.02 µM): 1.06
relative viability (ABC-1; first compound 0.06325 µM): 0.19
relative viability (ABC-1; first compound 0.2 µM): 0.18
relative viability (CAL-12T; first compound 0.002 µM): 0.7
relative viability (CAL-12T; first compound 0.006325 µM): 0.635
relative viability (CAL-12T; first compound 0.02 µM): 0.636
relative viability (CAL-12T; first compound 0.06325 µM): 0.06
relative viability (CAL-12T; first compound 0.2 µM): 0.0967
relative viability (COR-L 105; first compound 0.002 µM): 0.996
relative viability (COR-L 105; first compound 0.006325 µM): 0.897
relative viability (COR-L 105; first compound 0.02 µM): 0.976
relative viability (COR-L 105; first compound 0.06325 µM): 0.165
relative viability (COR-L 105; first compound 0.2 µM): 0.224
relative viability (ChaGo-K-1; first compound 0.002 µM): 1.23
relative viability (ChaGo-K-1; first compound 0.02 µM): 1.01
relative viability (ChaGo-K-1; first compound 0.06325 µM): 0.562
relative viability (ChaGo-K-1; first compound 0.2 µM): 0.301
relative viability (EKVX; first compound 0.002 µM): 0.985
relative viability (EKVX; first compound 0.006325 µM): 0.989
relative viability (EKVX; first compound 0.02 µM): 0.97
relative viability (EKVX; first compound 0.06325 µM): 0.472
relative viability (EKVX; first compound 0.2 µM): 0.218
relative viability (EPLC-272H; first compound 0.006325 µM): 0.892
relative viability (EPLC-272H; first compound 0.02 µM): 0.655
relative viability (EPLC-272H; first compound 0.06325 µM): 0.88
relative viability (EPLC-272H; first compound 0.2 µM): 0.917
relative viability (H3255; first compound 0.002 µM): 0.896
relative viability (H3255; first compound 0.006325 µM): 0.691
relative viability (H3255; first compound 0.02 µM): 0.755
relative viability (H3255; first compound 0.06325 µM): 0.621
relative viability (H3255; first compound 0.2 µM): 0.216
relative viability (HCC-366; first compound 0.002 µM): 0.695
relative viability (HCC-366; first compound 0.006325 µM): 0.659
relative viability (HCC-366; first compound 0.02 µM): 0.549
relative viability (HCC-366; first compound 0.06325 µM): 0.0174
relative viability (HCC-366; first compound 0.2 µM): 0.0135
relative viability (HCC-827; first compound 0.002 µM): 0.944
relative viability (HCC-827; first compound 0.006325 µM): 0.899
relative viability (HCC-827; first compound 0.02 µM): 0.887
relative viability (HCC-827; first compound 0.06325 µM): 0.952
relative viability (HCC-827; first compound 0.2 µM): 0.879
relative viability (NCI-H1355; first compound 0.002 µM): 1.1
relative viability (NCI-H1355; first compound 0.006325 µM): 1.05
relative viability (NCI-H1355; first compound 0.02 µM): 0.62
relative viability (NCI-H1355; first compound 0.06325 µM): 1.08
relative viability (NCI-H1355; first compound 0.2 µM): 1.08
relative viability (NCI-H1792; first compound 0.002 µM): 0.981
relative viability (NCI-H1792; first compound 0.006325 µM): 0.906
relative viability (NCI-H1792; first compound 0.02 µM): 0.955
relative viability (NCI-H1792; first compound 0.06325 µM): 0.435
relative viability (NCI-H1792; first compound 0.2 µM): 0.119
relative viability (NCI-H1975; first compound 0.002 µM): 0.975
relative viability (NCI-H1975; first compound 0.006325 µM): 0.99
relative viability (NCI-H1975; first compound 0.02 µM): 0.763
relative viability (NCI-H1975; first compound 0.06325 µM): 0.147
relative viability (NCI-H1975; first compound 0.2 µM): 0.15
relative viability (NCI-H1993; first compound 0.002 µM): 0.929
relative viability (NCI-H1993; first compound 0.006325 µM): 0.953
relative viability (NCI-H1993; first compound 0.02 µM): 0.884
relative viability (NCI-H1993; first compound 0.06325 µM): 0.743
relative viability (NCI-H1993; first compound 0.2 µM): 0.47
relative viability (NCI-H2009; first compound 0.002 µM): 1.14
relative viability (NCI-H2009; first compound 0.006325 µM): 0.918
relative viability (NCI-H2009; first compound 0.02 µM): 1.04
relative viability (NCI-H2009; first compound 0.06325 µM): 0.0632
relative viability (NCI-H2009; first compound 0.2 µM): 0.0663
relative viability (NCI-H2085; first compound 0.002 µM): 1.04
relative viability (NCI-H2085; first compound 0.006325 µM): 0.953
relative viability (NCI-H2085; first compound 0.02 µM): 0.948
relative viability (NCI-H2085; first compound 0.06325 µM): 0.383
relative viability (NCI-H2085; first compound 0.2 µM): 0.272
relative viability (NCI-H2087; first compound 0.002 µM): 0.934
relative viability (NCI-H2087; first compound 0.006325 µM): 0.684
relative viability (NCI-H2087; first compound 0.02 µM): 0.875
relative viability (NCI-H2087; first compound 0.06325 µM): 0.156
relative viability (NCI-H2087; first compound 0.2 µM): 0.145
relative viability (NCI-H2228; first compound 0.002 µM): 0.47
relative viability (NCI-H2228; first compound 0.006325 µM): 0.514
relative viability (NCI-H2228; first compound 0.02 µM): 0.264
relative viability (NCI-H2228; first compound 0.06325 µM): 0.161
relative viability (NCI-H2228; first compound 0.2 µM): 0.148
relative viability (NCI-H322M; first compound 0.002 µM): 0.925
relative viability (NCI-H322M; first compound 0.006325 µM): 0.924
relative viability (NCI-H322M; first compound 0.02 µM): 0.718
relative viability (NCI-H322M; first compound 0.06325 µM): 0.898
relative viability (NCI-H322M; first compound 0.2 µM): 0.808
relative viability (NCI-H441; first compound 0.002 µM): 0.884
relative viability (NCI-H441; first compound 0.006325 µM): 0.719
relative viability (NCI-H441; first compound 0.02 µM): 0.904
relative viability (NCI-H441; first compound 0.06325 µM): 0.119
relative viability (NCI-H441; first compound 0.2 µM): 0.109
relative viability (NCI-H460; first compound 0.002 µM): 0.957
relative viability (NCI-H460; first compound 0.006325 µM): 0.705
relative viability (NCI-H460; first compound 0.02 µM): 0.0276
relative viability (NCI-H460; first compound 0.06325 µM): 0.0089
relative viability (NCI-H460; first compound 0.2 µM): 0.0097
relative viability (SK-MES-1; first compound 0.002 µM): 0.984
relative viability (SK-MES-1; first compound 0.006325 µM): 1.03
relative viability (SK-MES-1; first compound 0.02 µM): 1.08
relative viability (SK-MES-1; first compound 0.06325 µM): 0.758
relative viability (SK-MES-1; first compound 0.2 µM): 0.147

Source: the supplement of paper PMC10307832
